Patent US20250353864A1, “INDAZOLE CONTAINING MACROCYCLES AND THEIR USE” (BLOSSOMHILL THERAPEUTICS, INC., priority 2022, published 2025)

Tests used:
Type in all cases: biochemical
EGFR WT = EGFR WT (Homo sapiens (Human), UniProt P00533); test: HotSpot radiometric kinase assay (Reaction Biology), EGFR WT; details: 10 μM ATP
Procedure, shortened: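 IC50 values derive from curve fits of 33P incorporation measured by P81 filter binding. ATP was 10 μM final; incubation lasted 120 min at room temperature after ~20 min compound preincubation.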

EGFR (D770_N771insNPG) = EGFR (D770_N771insNPG) (Homo sapiens (Human), UniProt P00533, INS770NPG); test: HotSpot radiometric kinase assay, EGFR (D770_N771insNPG); details: 10 μM ATP, read-out: EGFR (Δ770_N771insNPG) IC50
Chain of EGFR (D770_N771insNPG) (P00533 other isoform, or with tags, fused parts or gaps del 1-668/ins NPG behind 770 limits assumed): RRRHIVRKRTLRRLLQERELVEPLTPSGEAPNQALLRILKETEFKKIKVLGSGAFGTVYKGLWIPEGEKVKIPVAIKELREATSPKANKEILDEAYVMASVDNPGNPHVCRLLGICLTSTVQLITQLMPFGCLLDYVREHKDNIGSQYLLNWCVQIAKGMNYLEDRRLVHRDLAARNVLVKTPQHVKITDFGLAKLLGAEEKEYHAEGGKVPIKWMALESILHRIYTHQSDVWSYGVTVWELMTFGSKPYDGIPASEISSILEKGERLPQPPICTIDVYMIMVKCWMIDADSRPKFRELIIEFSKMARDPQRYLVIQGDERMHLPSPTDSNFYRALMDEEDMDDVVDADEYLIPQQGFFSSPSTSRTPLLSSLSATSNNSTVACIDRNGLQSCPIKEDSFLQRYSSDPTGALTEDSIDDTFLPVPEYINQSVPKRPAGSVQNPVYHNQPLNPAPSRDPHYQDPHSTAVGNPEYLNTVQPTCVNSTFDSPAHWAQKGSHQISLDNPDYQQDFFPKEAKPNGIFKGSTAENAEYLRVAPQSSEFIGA
Procedure, shortened: (§1)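 Enzyme and substrate pairs were exposed to inhibitor for roughly 20 min before radiolabelled ATP (10 μM final) was introduced; the reaction proceeded 120 min at ambient temperature in pH 7.5 buffer with 1% DMSO, and phosphorylated product was captured on P81 filters for IC50 determination.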

EGFR Δ746-750 mutant = EGFR Δ746-750 mutant (Homo sapiens (Human), UniProt P00533, DEL746-750); test: HotSpot radiometric kinase assay, EGFR Δ746-750 mutant; details: 10 μM ATP
Chain of EGFR Δ746-750 mutant (P00533 other isoform, or with tags, fused parts or gaps del 1-668/del 746-750 limits assumed): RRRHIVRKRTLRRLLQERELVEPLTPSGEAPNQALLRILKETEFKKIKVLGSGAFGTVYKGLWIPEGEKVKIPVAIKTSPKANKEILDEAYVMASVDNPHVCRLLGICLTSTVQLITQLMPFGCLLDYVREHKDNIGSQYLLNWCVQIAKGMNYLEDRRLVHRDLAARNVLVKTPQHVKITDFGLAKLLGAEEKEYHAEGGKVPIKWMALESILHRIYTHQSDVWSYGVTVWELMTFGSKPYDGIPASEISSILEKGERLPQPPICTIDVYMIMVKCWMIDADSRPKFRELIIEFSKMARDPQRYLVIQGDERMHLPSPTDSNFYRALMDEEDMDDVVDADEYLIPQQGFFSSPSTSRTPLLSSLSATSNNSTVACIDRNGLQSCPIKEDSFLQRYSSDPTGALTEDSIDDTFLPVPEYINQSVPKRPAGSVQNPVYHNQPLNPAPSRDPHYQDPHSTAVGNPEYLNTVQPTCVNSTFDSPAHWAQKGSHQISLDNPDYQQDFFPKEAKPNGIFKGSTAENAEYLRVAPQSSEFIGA
Procedure, shortened: as §1

[1] = target: EGFR Δ746-750/C797S mutant (Homo sapiens (Human), UniProt P00533, C797S/DEL746-750); test: HotSpot radiometric kinase assay, EGFR Δ746-750/C797S mutant; details: 10 μM ATP
Chain of EGFR Δ746-750/C797S mutant (P00533 other isoform, or with tags, fused parts or gaps C797S/del 1-668/del 746-750 limits assumed): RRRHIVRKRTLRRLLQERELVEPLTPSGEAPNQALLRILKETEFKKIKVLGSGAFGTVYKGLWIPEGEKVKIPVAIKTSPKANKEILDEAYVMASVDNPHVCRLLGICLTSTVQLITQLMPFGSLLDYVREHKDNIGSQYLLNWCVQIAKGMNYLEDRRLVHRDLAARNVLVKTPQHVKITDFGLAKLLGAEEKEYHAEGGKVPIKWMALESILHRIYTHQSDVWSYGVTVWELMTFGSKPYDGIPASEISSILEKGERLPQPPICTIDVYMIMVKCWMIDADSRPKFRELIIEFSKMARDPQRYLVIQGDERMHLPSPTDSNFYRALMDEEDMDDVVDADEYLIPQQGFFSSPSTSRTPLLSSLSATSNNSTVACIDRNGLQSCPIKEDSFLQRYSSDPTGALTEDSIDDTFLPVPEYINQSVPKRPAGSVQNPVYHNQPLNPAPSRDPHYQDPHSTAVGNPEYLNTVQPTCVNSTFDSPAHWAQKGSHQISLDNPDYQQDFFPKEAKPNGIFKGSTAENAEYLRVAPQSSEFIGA
Procedure, shortened: as §1

EGFR L858R mutant = EGFR L858R mutant (Homo sapiens (Human), UniProt P00533, L858R); test: HotSpot radiometric kinase assay, EGFR L858R mutant; details: 10 μM ATP
Procedure, shortened: as §1

EGFR L858R/T790M mutant = EGFR L858R/T790M mutant (Homo sapiens (Human), UniProt P00533, L858R/T790M); test: HotSpot radiometric kinase assay, EGFR L858R/T790M mutant; details: 10 μM ATP
Procedure, shortened: as §1

[2] = target: EGFR L858R/T790M/C797S mutant (Homo sapiens (Human), UniProt P00533, C797S/L858R/T790M); test: HotSpot radiometric kinase assay, EGFR L858R/T790M/C797S mutant; details: 10 μM ATP
Procedure, shortened: as §1

CLK1 = CLK1 (Homo sapiens (Human), UniProt P49759); test: Inhibition of CLK1 kinase activity evaluated at Nanosyn (ADP-Glo); details: ADP-Glo luminescence
Chain of CLK1 (P49759 whole entry): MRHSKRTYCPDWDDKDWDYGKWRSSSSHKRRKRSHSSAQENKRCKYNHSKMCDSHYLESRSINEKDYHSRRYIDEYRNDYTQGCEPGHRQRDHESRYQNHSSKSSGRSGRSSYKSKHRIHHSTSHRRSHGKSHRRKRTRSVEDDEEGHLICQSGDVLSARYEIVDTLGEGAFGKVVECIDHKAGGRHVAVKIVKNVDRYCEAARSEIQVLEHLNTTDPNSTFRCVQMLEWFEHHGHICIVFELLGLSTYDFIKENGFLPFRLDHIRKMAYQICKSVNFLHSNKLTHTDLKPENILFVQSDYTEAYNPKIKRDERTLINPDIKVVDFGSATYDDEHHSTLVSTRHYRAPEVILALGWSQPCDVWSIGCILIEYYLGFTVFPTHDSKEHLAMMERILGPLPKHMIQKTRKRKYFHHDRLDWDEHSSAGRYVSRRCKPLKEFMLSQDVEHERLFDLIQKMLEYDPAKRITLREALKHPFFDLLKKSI
Protocol: (§2) Inhibition of CLK, CLK2, CLK3 and CLK4 Kinase Activity Evaluated at Nanosyn
(§3) Kinase protein and substrate were pre-diluted in the HEPES assay buffer (100 mM HEPES, pH 7.5, 0.01% Triton X-100, 0.1% BSA, 5 mM MgCl2, […] DTT, 10 Sodium Orthovanadate, […] Beta-Glycerophosphate) dispensed into 384 well plate (5 μL per well). Control samples (0%-inhibition in the absence of inhibitor, DMSO only) and 100%-inhibition (in the absence of enzyme) were assembled in replicates of six and were used to calculate %-inhibition in the presence of compounds. Test compounds were added to the protein samples by acoustic dispensing (Labcyte Echo550). Concentration of DMSO was equalized to 1% in all samples. Reactions were initiated by addition of ATP by acoustic dispensing (Labcyte Echo550) and incubated according to assay specific incubation time. After incubation. 5 μL of Promega ADP-Glo reagent was added and incubated for 40 minutes. After 40 minutes, 10 uL of Promega kinase detection reagent was added. After 10 min of incubation with Kinase detection reagent, the luminescence was read on microplate reader (Biotek Synergy).

CLK2 = CLK2 (Homo sapiens (Human), UniProt P49760); test: Inhibition of CLK2 kinase activity evaluated at Nanosyn (ADP-Glo); details: ADP-Glo luminescence
Chain of CLK2 (P49760 whole entry): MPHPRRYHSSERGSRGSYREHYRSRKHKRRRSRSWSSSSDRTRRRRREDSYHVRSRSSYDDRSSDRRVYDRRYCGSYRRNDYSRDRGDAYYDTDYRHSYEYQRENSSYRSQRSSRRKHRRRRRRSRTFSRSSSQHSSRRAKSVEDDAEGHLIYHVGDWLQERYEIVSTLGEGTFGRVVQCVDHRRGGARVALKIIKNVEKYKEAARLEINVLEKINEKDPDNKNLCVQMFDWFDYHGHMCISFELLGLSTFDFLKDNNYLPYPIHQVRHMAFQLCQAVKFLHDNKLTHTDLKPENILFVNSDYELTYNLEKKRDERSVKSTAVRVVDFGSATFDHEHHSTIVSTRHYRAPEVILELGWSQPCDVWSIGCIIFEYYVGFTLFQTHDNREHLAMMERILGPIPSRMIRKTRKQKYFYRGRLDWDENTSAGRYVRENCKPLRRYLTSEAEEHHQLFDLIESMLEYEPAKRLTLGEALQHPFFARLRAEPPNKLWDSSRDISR
Protocol: as §2, §3

CLK3 = CLK3 (Homo sapiens (Human), UniProt P49761); test: Inhibition of CLK3 kinase activity evaluated at Nanosyn (ADP-Glo); details: ADP-Glo luminescence
Chain of CLK3 (P49761 whole entry): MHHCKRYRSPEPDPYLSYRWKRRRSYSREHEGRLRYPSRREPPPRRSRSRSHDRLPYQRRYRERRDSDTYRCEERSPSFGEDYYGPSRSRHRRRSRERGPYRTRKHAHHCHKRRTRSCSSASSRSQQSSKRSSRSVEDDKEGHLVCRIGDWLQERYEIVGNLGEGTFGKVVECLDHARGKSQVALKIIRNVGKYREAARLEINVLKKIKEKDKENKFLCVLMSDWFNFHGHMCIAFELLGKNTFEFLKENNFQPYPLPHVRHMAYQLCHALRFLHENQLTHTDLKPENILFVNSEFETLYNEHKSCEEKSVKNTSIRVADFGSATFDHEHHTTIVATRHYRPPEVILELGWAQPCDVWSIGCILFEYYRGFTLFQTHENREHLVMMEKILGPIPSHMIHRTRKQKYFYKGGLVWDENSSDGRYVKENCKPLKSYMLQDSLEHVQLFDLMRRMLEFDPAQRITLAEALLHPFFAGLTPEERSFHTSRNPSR
Protocol: as §2, §3

CLK4 = CLK4 (Homo sapiens (Human), UniProt Q9HAZ1); test: Inhibition of CLK4 kinase activity evaluated at Nanosyn (ADP-Glo); details: ADP-Glo luminescence
Chain of CLK4 (Q9HAZ1 whole entry): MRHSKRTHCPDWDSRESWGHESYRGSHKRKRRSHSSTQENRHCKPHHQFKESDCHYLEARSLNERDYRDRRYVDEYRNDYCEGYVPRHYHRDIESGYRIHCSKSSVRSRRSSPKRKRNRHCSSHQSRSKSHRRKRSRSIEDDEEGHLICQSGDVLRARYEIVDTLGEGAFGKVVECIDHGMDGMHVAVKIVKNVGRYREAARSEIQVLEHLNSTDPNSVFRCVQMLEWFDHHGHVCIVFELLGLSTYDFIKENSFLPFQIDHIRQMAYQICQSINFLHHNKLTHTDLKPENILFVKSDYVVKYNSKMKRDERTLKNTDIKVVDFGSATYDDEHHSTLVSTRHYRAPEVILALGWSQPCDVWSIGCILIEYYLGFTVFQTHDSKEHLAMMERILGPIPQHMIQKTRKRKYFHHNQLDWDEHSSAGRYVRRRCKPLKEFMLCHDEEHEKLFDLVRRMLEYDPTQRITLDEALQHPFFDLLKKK
Protocol: as §2, §3

Chain of EGFR WT (P00533 25-1210): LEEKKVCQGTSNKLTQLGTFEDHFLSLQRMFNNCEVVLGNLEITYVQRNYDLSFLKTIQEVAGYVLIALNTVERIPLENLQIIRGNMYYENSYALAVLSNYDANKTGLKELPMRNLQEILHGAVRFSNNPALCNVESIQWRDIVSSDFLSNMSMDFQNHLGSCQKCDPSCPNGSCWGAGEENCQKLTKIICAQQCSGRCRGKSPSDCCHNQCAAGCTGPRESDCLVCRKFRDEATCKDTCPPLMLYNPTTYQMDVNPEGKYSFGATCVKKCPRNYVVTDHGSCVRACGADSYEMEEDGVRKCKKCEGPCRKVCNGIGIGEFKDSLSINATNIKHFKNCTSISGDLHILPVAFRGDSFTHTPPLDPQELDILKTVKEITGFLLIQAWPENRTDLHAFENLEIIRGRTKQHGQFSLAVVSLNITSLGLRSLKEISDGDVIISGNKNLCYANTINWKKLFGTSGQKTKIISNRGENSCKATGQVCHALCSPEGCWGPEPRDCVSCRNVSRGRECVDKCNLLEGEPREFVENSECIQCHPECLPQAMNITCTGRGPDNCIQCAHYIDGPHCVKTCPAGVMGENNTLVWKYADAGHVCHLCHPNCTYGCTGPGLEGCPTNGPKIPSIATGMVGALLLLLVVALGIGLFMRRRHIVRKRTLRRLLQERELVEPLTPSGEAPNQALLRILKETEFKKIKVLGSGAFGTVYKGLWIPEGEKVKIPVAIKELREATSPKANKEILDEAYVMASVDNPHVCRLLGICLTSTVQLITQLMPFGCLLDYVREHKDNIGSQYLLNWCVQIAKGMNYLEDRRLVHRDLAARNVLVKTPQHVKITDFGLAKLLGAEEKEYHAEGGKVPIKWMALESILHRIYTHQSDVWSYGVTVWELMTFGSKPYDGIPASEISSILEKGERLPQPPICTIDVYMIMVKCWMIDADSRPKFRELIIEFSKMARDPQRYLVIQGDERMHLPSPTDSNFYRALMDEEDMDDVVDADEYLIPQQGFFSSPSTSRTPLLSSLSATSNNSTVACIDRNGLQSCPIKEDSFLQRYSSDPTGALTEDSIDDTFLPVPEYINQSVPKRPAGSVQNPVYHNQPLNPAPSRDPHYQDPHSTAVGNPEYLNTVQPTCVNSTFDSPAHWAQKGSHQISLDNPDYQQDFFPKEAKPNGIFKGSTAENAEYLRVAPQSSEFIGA

Row | IC50 (EGFR WT) | IC50 (EGFR (D770_N771insNPG)) | IC50 (EGFR Δ746-750 mutant) | IC50 [1] | IC50 (EGFR L858R mutant) | IC50 (EGFR L858R/T790M mutant) | IC50 [2] | IC50 (CLK1) | IC50 (CLK2) | IC50 (CLK3) | IC50 (CLK4) | SMILES
1 | 138 nM | 175 nM | 20.6 nM | 4.99 nM | 11.9 nM | 43.6 nM | 7.49 nM | 3.44 nM | 2.81 nM | 1000 nM | 4.31 nM | Cc1nn(CCO)c2c1/C=C/c1n[nH]c3cc(Cl)c(cc13)-c1cnn(C)c1O[C@@H](C)CN(C)C2 [Example 125, 2-[(10S,17E)-19-chloro-8,10,12,16-tetramethyl-2,8,10,11,12,13-hexahydro-14H-3,5-ethenotripyrazolo[3,4-f:3′,4′-j:4″,3″-n][1,4]oxazacyclopentadecin-14-yl]ethan-1-ol]
2 | 1.84 nM | 6.61 nM | 2.1 nM | 0.69 nM | 0.6 nM | 0.48 nM | 1.34 nM | 0.32 nM | 0.08 nM | 64.7 nM | 0.59 nM | CCOc1nn(CCO)c2c1/C=C/c1n[nH]c3cc(F)c(cc13)-c1cnn(C)c1O[C@@H](C)CN(C)C2 [Example 172, 2-[(10S,17E)-16-ethoxy-19-fluoro-8,10,12-trimethyl-2,8,10,11,12,13-hexahydro-14H-3,5-ethenotripyrazolo[3,4-f:3′,4′-j:4″,3″- n][1,4]oxazacyclopentadecin-14-yl]ethan-1-ol]
3 | 94.5 nM | 98.3 nM | 8.48 nM | 7.12 nM | 40.1 nM | 4.98 nM | 1.67 nM | 0.82 nM | 0.49 nM | 104 nM | 1.5 nM | CCN1Cc2c(c(OC(C)C)nn2CC(C)(C)O)/C=C/c2n[nH]c3ccc(cc23)-c2cnn(C)c2O[C@@H](C)C1 [Example 262, 1-{(10S,17E)-12-ethyl-8,10-dimethyl-16-[(propan-2-yl)oxy]-2,8,10,11,12,13-hexahydro-14H-3,5-ethenotripyrazolo[3,4-f:3′,4′-j:4″,3″-n][1,4]oxazacyclopentadecin-14-yl}-2-methylpropan-2-ol]
4 | 815 nM | 826 nM | 162 nM | 70 nM | 491 nM | 18 nM | 8.63 nM | 1.06 nM | 3.08 nM | 519 nM | 1.59 nM | CC(C)Oc1nn(CCO)c2c1/C=C/c1n[nH]c3ccc(cc13)-c1cnn(C)c1O[C@@H](C#N)CN(C)C2 [Example 264, (10R,17E)-14-(2-hydroxyethyl)-8,12-dimethyl-16-[(propan-2-yl)oxy]-2,10,11,12,13,14-hexahydro-8H-3,5-ethenotripyrazolo[3,4-f:3′,4′-j:4″,3″-n][1,4]oxazacyclopentadecine-10-carbonitrile]
5 | 43.8 nM | 59.1 nM | 12.9 nM | 3.06 nM | 14.6 nM | 1.48 nM | 0.46 nM | 0.24 nM | 0.18 nM | 126 nM | 1 nM | C[C@H]1CN(C)Cc2c(c(O)nn2CCO)/C=C/c2n[nH]c3ccc(cc23)-c2cnn(C)c2O1 [Example 186, (10S,17E)-14-(2-hydroxyethyl)-8,10,12-trimethyl-2,10,11,12,13,14-hexahydro-8H-3,5-ethenotripyrazolo[3,4-f:3′,4′-j:4″,3″-n][1,4]oxazacyclopentadecin-16-ol]
6 | 0.87 nM | 2.55 nM | 0.3 nM | 0.72 nM | 0.22 nM | 0.48 nM | 0.46 nM | 0.24 nM | 0.04 nM | 23 nM | 0.52 nM | CCOc1nn(CCO)c2c1/C=C/c1n[nH]c3ccc(cc13)-c1cnn(C)c1O[C@@H](C)CN(C(C)C)C2 [Example 151, 2-[(10S,17E)-16-ethoxy-8,10-dimethyl-12-(propan-2-yl)-2,8,10,11,12,13-hexahydro-14H-3,5-ethenotripyrazolo[3,4-f:3′,4′-j:4″,3″-n][1,4]oxazacyclopentadecin-14-yl]ethan-1-o]
7 | 2.14 nM | 16.7 nM | 1.11 nM | 1.32 nM | 0.9 nM | 1.29 nM | 1.83 nM | 11.9 nM | 13.9 nM | 1000 nM | 5.91 nM | CCOc1nn(CCO)c2c1/C=C/c1n[nH]c3ccc(cc13)-c1c(C)nn(C)c1O[C@@H](C)CN(C(C)C)C2 [Example 142, 2-[(10S,17E)-16-ethoxy-6,8,10-trimethyl-12-(propan-2-yl)-2,8,10,11,12,13-hexahydro-14H-3,5-ethenotripyrazolo[3,4-f:3′,4′-j:4″,3″- n][1,4]oxazacyclopentadecin-14-yl]ethan-1-ol]
8 | 329 nM | 500 nM | 40.1 nM | 22.9 nM | 66.5 nM | 9.39 nM | 21.8 nM | 0.9 nM | 4.29 nM | 1000 nM | 1.3 nM | CCOc1nn(CCO)c2c1/C=C/c1n[nH]c3ccc(cc13)-c1cnn(C)c1OC[C@H](CC)N(C)C2 [Example 259, 2-[(11S,17E)-16-ethoxy-11-ethyl-8,12-dimethyl-2,8,10,11,12,13-hexahydro-14H-3,5-ethenotripyrazolo[3,4-f:3′,4′-j:4″,3″-n][1,4]oxazacyclopentadecin-14-yl]ethan-1-ol]
9 | 5.72 nM | 15.8 nM | 1.22 nM | 1.26 nM | 1.56 nM | 0.48 nM | 2.17 nM | 0.5 nM | 0.23 nM | 17.2 nM | 1.04 nM | CC(C)Oc1nn(CCO)c2c1/C=C/c1n[nH]c3ccc(cc13)-c1cnn(C)c1O[C@@H](CO)CN(C)C2 [Example 258, 2-{(10R,17E)-10-(hydroxymethyl)-8,12-dimethyl-16-[(propan-2-yl)oxy]-2,8,10,11,12,13-hexahydro-14H-3,5-ethenotripyrazolo[3,4-f:3′,4′-j:4″,3″-n][1,4]oxazacyclopentadecin-14-yl}ethan-1-ol]
10 | > 1000 nM | > 1000 nM | 533 nM | 127 nM | 513 nM | 45.5 nM | 27.4 nM | 0.7 nM | 0.89 nM | 1000 nM | 1.26 nM | C[C@H]1CN(C)Cc2onc(C3CC3)c2/C=C/c2n[nH]c3ccc(cc23)-c2cnn(C)c2O1 [Example 173, (10S,17E)-16-cyclopropyl-8,10,12-trimethyl-2,8,10,11,12,13-hexahydro-3,5-etheno[1,2]oxazolo[5,4-f]dipyrazolo[3,4-j:4′,3′-n][1,4]oxazacyclopentadecine]
11 | 13.6 nM | 25.3 nM | 3.5 nM | 3.74 nM | 4.55 nM | 0.9 nM | 3.19 nM | 4.9 nM | 5.21 nM | 361 nM | 3.15 nM | CCOc1nn(CCO)c2c1/C=C/c1n[nH]c3ccc(cc13)-c1cnn(C)c1O[C@@H](CC)CN(C)C2 [Example 260, 2-[(10S,17E)-16-ethoxy-10-ethyl-8,12-dimethyl-2,8,10,11,12,13-hexahydro-14H-3,5-ethenotripyrazolo[3,4-f:3′,4′-j:4″,3″-n][1,4]oxazacyclopentadecin-14-yl]ethan-1-ol]
